In paper PMC9516332 (Frontiers in Oncology, 2022):
Like-named read-outs stand apart in the source and are kept apart here.

What was measured:
Test in all cases: Kinase panel profiling at 1 µmol/L (MSA or IMAP), percentage inhibition
Format in all cases: biochemical
[1] = biological target: panel of 255 wild-type kinases (Homo sapiens, UniProt P11802); conditions: read-out: %-inhibition CDK4/CycD3
[2] = biological target: panel of 255 wild-type kinases (Homo sapiens, UniProt P54764); conditions: read-out: %-inhibition at 1 µmol/L, EPHA4
[3] = biological target: panel of 255 wild-type kinases (Homo sapiens, UniProt Q9Y243); conditions: read-out: %-inhibition AKT3
[4] = biological target: panel of 255 wild-type kinases (Homo sapiens, UniProt P78362); conditions: read-out: %-inhibition at 1 µmol/L, SRPK2
[5] = biological target: T1, panel of 255 wild-type kinases (Homo sapiens, UniProt Q9NWZ3); conditions: read-out: %-inhibition at 1 µmol/L, IRAK4
T1 sequence (Q9NWZ3 1-460): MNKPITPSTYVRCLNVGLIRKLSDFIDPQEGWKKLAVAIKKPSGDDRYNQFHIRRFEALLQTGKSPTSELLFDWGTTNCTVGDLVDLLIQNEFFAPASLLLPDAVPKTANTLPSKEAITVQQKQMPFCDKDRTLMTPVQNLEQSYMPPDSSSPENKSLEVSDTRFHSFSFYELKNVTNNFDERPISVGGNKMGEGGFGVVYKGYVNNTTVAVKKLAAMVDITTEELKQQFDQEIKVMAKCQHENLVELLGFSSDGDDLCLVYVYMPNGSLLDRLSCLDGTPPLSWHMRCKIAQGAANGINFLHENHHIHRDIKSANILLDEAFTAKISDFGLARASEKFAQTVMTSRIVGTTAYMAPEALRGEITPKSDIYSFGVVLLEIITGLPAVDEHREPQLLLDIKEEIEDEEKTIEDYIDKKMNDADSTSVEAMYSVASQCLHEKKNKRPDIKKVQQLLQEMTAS

[6] = biological target: panel of 255 wild-type kinases (Homo sapiens, UniProt Q14680); conditions: read-out: %-inhibition, MELK
[7] = biological target: panel of 255 wild-type kinases (Homo sapiens, UniProt P42685); conditions: read-out: %-inhibition at 1 µmol/L, FRK
[8] = biological target: T2, panel of 255 wild-type kinases (Homo sapiens, UniProt Q06418); conditions: read-out: %-inhibition at 1 µmol/L, TYRO3
T2 sequence (Q06418 41-890): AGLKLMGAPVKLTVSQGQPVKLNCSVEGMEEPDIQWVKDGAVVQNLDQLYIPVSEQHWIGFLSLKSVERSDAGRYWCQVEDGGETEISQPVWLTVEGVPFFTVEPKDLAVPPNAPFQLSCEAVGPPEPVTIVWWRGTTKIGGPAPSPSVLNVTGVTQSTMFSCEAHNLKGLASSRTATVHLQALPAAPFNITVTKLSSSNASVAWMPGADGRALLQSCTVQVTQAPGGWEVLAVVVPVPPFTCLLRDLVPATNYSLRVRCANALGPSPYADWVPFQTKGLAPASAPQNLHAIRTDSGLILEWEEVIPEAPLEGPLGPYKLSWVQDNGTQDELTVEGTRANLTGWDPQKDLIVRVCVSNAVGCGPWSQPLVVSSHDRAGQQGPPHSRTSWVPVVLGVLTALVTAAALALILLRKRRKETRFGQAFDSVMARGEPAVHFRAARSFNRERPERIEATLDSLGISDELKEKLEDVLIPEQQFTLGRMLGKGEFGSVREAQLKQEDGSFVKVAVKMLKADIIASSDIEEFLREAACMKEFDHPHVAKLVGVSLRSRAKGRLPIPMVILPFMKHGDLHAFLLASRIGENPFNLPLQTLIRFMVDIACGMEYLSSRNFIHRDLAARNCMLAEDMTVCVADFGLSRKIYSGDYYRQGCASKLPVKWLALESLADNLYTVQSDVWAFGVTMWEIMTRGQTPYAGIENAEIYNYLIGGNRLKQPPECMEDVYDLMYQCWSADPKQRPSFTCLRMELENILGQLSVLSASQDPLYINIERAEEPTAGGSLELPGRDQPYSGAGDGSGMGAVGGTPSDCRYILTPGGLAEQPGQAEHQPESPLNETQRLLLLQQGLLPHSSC

[9] = biological target: T3, panel of 255 wild-type kinases (Homo sapiens, UniProt O14965)
T3 sequence (O14965 1-403): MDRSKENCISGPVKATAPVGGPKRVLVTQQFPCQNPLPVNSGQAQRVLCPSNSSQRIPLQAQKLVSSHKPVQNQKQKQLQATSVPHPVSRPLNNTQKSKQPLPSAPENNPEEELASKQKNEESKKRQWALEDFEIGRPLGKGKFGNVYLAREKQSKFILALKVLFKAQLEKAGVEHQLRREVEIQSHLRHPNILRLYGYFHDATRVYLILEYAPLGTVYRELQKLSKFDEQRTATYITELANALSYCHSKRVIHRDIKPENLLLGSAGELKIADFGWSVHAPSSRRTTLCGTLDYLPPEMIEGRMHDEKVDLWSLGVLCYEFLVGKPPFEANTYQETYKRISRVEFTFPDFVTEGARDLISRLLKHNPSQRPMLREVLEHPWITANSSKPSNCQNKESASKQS

[10] = CDK4/CycD3 kinase assay, 1 µmol/L single concentration
[11] = kinase EPHA4, 1 µmol/L single concentration
[12] = AKT3 kinase assay, 1 µmol/L single concentration
[13] = kinase SRPK2, 1 µmol/L single concentration
[14] = kinase IRAK4, 1 µmol/L single concentration
[15] = MELK, 1 µmol/L single concentration
[16] = kinase FRK, 1 µmol/L single concentration
[17] = kinase TYRO3, 1 µmol/L single concentration
[18] = AurA kinase assay, 1 µmol/L single concentration, read-out: %-inhibition AurA
[19] = AurA/TPX2 kinase assay, 1 µmol/L single concentration, read-out: %-inhibition AurA/TPX2

| SMILES | inhibition at 1 µM [1, 10] [%] | inhibition at 1 µM [2, 11] [%] | inhibition at 1 µM [3, 12] [%] | inhibition at 1 µM [4, 13] [%] | inhibition at 1 µM [5, 14] [%] | inhibition at 1 µM [6, 15] [%] | inhibition at 1 µM [7, 16] [%] | inhibition at 1 µM [8, 17] [%] | inhibition at 1 µM [9, 18] [%] | inhibition at 1 µM [9, 19] [%] | inhibition at 1 µM [1] [%] | inhibition at 1 µM [2] [%] | inhibition at 1 µM [3] [%] | inhibition at 1 µM [4] [%] | inhibition at 1 µM [5] [%] | inhibition at 1 µM [6] [%] | inhibition at 1 µM [7] [%] | inhibition at 1 µM [8] [%] | inhibition at 1 µM ([9]; read-out: %-inhibition AurA) [%] | inhibition at 1 µM ([9]; read-out: %-inhibition AurA/TPX2) [%] |
| --- | --- | --- | --- | --- | --- | --- | --- | --- | --- | --- | --- | --- | --- | --- | --- | --- | --- | --- | --- | --- |
| COc1ccc(CN2C3CC2CN(c2ccc(-c4cc(OCC(C)(C)O)cn5ncc(C#N)c45)cn2)C3)cn1 [selpercatinib] | 0.921 | 58 | -0.71 | -0.197 | 1.9 | 62 | 13 | 99 | 66 | 71 | – | – | – | – | – | – | – | – | – | – |
| CCN1C(=O)N(c2c(F)c(OC)cc(OC)c2F)Cc2cnc3[nH]c(CN4CCOCC4)cc3c21 [pemigatinib] | 9 | -1.83 | -2.7 | -6 | 0.22 | 0.738 | 10 | 4 | 11 | -4.43 | – | – | – | – | – | – | – | – | – | – |
| CNC(=O)c1ccc(-c2cnc3ncc(Cc4ccc5ncccc5c4)n3n2)cc1F [capmatinib] | – | – | – | – | – | – | – | – | – | – | -3.55 | -2.77 | -5 | -9 | -0.569 | -4 | -2 | 7 | 3.78 | -6 |
| FC(F)(F)c1ccc(CNc2ccc(Cc3c[nH]c4ncc(Cl)cc34)cn2)cn1 [pexidartinib] | -1.58 | 1.65 | -6 | -1.19 | 37 | 3 | 5.44 | 10 | 44 | 21 | – | – | – | – | – | – | – | – | – | – |
| C[C@H](Nc1ncnc2nc[nH]c12)c1cc2cccc(Cl)c2c(=O)n1-c1ccccc1 [duvelisib] | -10 | -0.265 | 0.279 | -0.863 | 1.13 | 2.43 | -2.26 | 6 | -4.54 | 1.81 | – | – | – | – | – | – | – | – | – | – |
| Cc1cc(Nc2ncnc3ccc(NC4=NC(C)(C)CO4)cc23)ccc1Oc1ccn2ncnc2c1 [tucatinib] | -2 | -2.34 | -4.58 | -0.581 | 0.835 | 0.809 | -2.17 | 6 | -1.53 | -9 | – | – | – | – | – | – | – | – | – | – |
| C[C@H]1Oc2cc(cnc2N)-c2c(nn(C)c2C#N)CN(C)C(=O)c2ccc(F)cc21 [lorlatinib] | -7 | 25 | -0.768 | 4 | -1.47 | 4 | – | 9 | 21 | 29 | – | – | – | – | – | – | – | – | – | – |
| CCN1CCN(c2ccc(Nc3cc(N(C)C(=O)Nc4c(Cl)c(OC)cc(OC)c4Cl)ncn3)cc2)CC1 [infigratinib] | 66 | 0.256 | -7 | -5.51 | -1.22 | -2 | – | 10 | -5.38 | -10 | – | – | – | – | – | – | – | – | – | – |
| CN1CCN(c2ccc(C(=O)Nc3n[nH]c4ccc(Cc5cc(F)cc(F)c5)cc34)c(NC3CCOCC3)c2)CC1 [entrectinib] | -7.43 | 28 | -1.28 | 21 | 8 | – | 96 | 20 | 81 | 75 | – | – | – | – | – | – | – | – | – | – |

Continued, in another order:

| inhibition at 1 µM [1, 10] [%] | inhibition at 1 µM [2, 11] [%] | inhibition at 1 µM [3, 12] [%] | inhibition at 1 µM [4, 13] [%] | inhibition at 1 µM [5, 14] [%] | inhibition at 1 µM [6, 15] [%] | inhibition at 1 µM [7, 16] [%] | inhibition at 1 µM [8, 17] [%] | inhibition at 1 µM [9, 18] [%] | inhibition at 1 µM [9, 19] [%] | SMILES | inhibition at 1 µM [1] [%] | inhibition at 1 µM [2] [%] | inhibition at 1 µM [3] [%] | inhibition at 1 µM [4] [%] | inhibition at 1 µM [5] [%] | inhibition at 1 µM [6] [%] | inhibition at 1 µM [7] [%] | inhibition at 1 µM [8] [%] | inhibition at 1 µM ([9]; read-out: %-inhibition AurA) [%] | inhibition at 1 µM ([9]; read-out: %-inhibition AurA/TPX2) [%] |
| --- | --- | --- | --- | --- | --- | --- | --- | --- | --- | --- | --- | --- | --- | --- | --- | --- | --- | --- | --- | --- |
| -1.85 | -2.57 | -6.42 | -2.61 | -1.34 | -2.6 | -3 | 11 | -5.67 | -8 | Cn1cnc2c(F)c(Nc3ccc(Br)cc3Cl)c(C(=O)NOCCO)cc21 [selumetinib] | – | – | – | – | – | – | – | – | – | – |
| -0.745 | -0.0271 | -5.46 | -3 | 1.67 | -1.52 | -0.308 | 5.58 | -4.5 | -3 | O=C(Nc1cnn2ccc(N3CCC[C@@H]3c3cc(F)ccc3F)nc12)N1CC[C@H](O)C1 [larotrectinib] | – | – | – | – | – | – | – | – | – | – |
| -1 | 52 | -2.71 | -2.72 | -0.786 | 3.6 | 82 | 97 | 73 | 70 | CO[C@]1(C(=O)N[C@@H](C)c2ccc(-n3cc(F)cn3)nc2)CC[C@H](c2nc(C)cc(Nc3cc(C)[nH]n3)n2)CC1 [pralsetinib] | – | – | – | – | – | – | – | – | – | – |
| 3.25 | 7.56 | -5.69 | -1.4 | 1.26 | -1.8 | 3 | 5.28 | -3 | -4 | Cn1cnc2c(F)c(Nc3ccc(Br)cc3F)c(C(=O)NOCCO)cc21 [binimetinib] | – | – | – | – | – | – | – | – | – | – |
| -10 | -5 | -0.151 | -1.61 | -3.77 | 0.22 | -2.26 | 1.52 | -0.801 | -0.57 | Cc1nc(NC(=O)N2CCC[C@H]2C(N)=O)sc1-c1ccnc(C(C)(C)C(F)(F)F)c1 [alpelisib] | – | – | – | – | – | – | – | – | – | – |
